Experimental findings from patent publication US20190284640A1, “Methods and Systems for Predicting Response to Immunotherapies for Treatment of Cancer” (Vanderbilt University, priority 2018, published 2019) are described below.

Assay [1] deals with TP53 mutant mouse breast cancer cells lines. The experiment in a line: Cytokine expression after doxorubicin in mouse breast cancer cell lines. It counts as cell-based.
For assay [2], the system named is p53 altered MMTV-Neu cells. The experiment in a line: Chemokine induction by doxorubicin in MMTV-Neu cells. It counts as cell-based, mouse. The text has this: Doxorubicin induces T cell recruiting chemokines in p53 altered MMTV-Neu cells. FIG. 49.
Assay [3] relates to melanoma cell lines. The experiment in a line: Flow cytometry of melanoma cell lines under basal and IFNγ-stimulated conditions. It counts as cell-based, human. The procedure:
(§1) FIGS. 3A-F show characterization of MHC-II(+) melanoma cell lines. Melanoma cell lines were treated with IFNy for 24 h before collection and live-cell staining and flow cytometry analysis for (A) MHC-I (HLA-A/B/C), (B) MHC-II (HLA-DR), and (C) PD-L1. Bars represent mean ±S.E.M. for at least three experiments (D) Representative flow plots from (C). (E) Western blot analysis of melanoma cell lines after 24 or 48 h of IFNy stimulation. (F) Phosphorylation of STAT1 (top row) and STATS (bottom row) in melanoma cell lines at 15 min after IFNy stimulation. Histograms were colored according to the arcsinh transformed ratio or MFI medians relative to the table minimum value.
FIGS. 4A-D show graphs illustrating mean expression levels of MHC-I, MHC-II, and PD-L1 at baseline and after IFNy stimulation. Melanoma cell lines were treated with 100 ng IFNy for 24 hr (shown as percentage positive in FIGS. 2A-C) prior to harvest and live-cell staining and flow cytometry analysis for (A) MHC-FHLA-A/B/C, (B) MHC-II/HLA-DR, and (C) PD-L1. Bars represent mean fluorescence intensity ±SEM for 3 experiments. (D) Histograms of HLA-DR surface expression over an extended (24-72 hr) IFNy treatment, as assessed by flow cytometry.
Cell surface expression mirrored mRNA expression patterns; MHC-I (HLA-A/B/C) was expressed ubiquitously among all cell lines under both basal and stimulated conditions, while MHC-II (HLA-DR) was present only on the intermediate/Ib (SKMEL5 and SKMEL28) and high/Ia cell lines (WM115 and A375; FIGS. 3A-C and 4A-D). […] The high (Ia) WM115 cell line was essentially 100% positive for HLA-DR at both basal and stimulated conditions.
Standard Flow Cytometry. Flow cytometry was performed using the following antibodies: HLA-DR/PE-Cy7 (Biolegend, clone L243. 1:20). CD274/PD-L1/APC (Biolegend, clone 29E.2A3, 1:200) and HLA-A/B/C-Alexa Fluor488 (1:100, Biolegend, clone W6/32) mouse MHC-II (I-A/I-E 1:20 Biolegend, clone M5/114.15.2). DAPI was used as a viability dye. Samples were analyzed on an Aria III laser system (BD Biosciences)
Cell and tumor culture. […]
Background: A flow cytometer gives signals particle by particle.

For assay [4], the system named is melanoma cell lines. The experiment in a line: Western blot of melanoma cell lines after IFNγ stimulation. It counts as cell-based, human. The procedure:
as §1
Immunoblotting was performed as previously described^32 Briefly, cells were washed in cold phosphate-buffered saline, collected and lysed in 1×RIPA buffer (50 mM Tris (pH 7.4), 1% NP-40, 150 mM NaCl, 1 mM EDTA, 0.1% SDS, 0.25% sodium deoxycholate, 5 mM NaF, 5 mM Na3VO4, 10% glycerol, […] phenylmethyl-sulphonylfluoride and protease inhibitors) for 30 min on ice. Lysates were sonicated for 2-3 s to shear DNA and cleared by centrifugation at 13,200 r.p.m. for 15 min. Protein concentrations of the lysates were determined by BCA assay (Bio-Rad, Hercules, Calif.). Samples were separated by SDS-PAGE and transferred to nitrocellulose membrane. […]

In assay [5] the test system is melanoma cell lines. The experiment in a line: Phospho-flow cytometry of melanoma cell lines after IFNγ stimulation. As to conditions: 15 min IFNγ; MHC-II(−) cell lines. It counts as cell-based, human. The procedure: as §1
Phospho-flow cytometry. Melanoma cell lines were treated with Accutase™ (EMD Millipore, # SCR005) for 10 minutes at 37° C. to dissociate them from the plate. Dissociated cell lines were rested at 37° C. in a CO2 incubator for 30 minutes prior to stimulation. After resting, cells were stimulated by adding IFNy (Cell Signaling) at a final concentration of 100 ng/mL. During signaling, cells were kept in a 37° C. CO2 incubator. After 15 minutes of signaling, cells were fixed for 10 minutes at room temperature with a final concentration of 1.6% paraformaldehyde (Electron Microscopy Services). […] Samples were analyzed on a LSRII system (BD Biosciences).

Assay [6] deals with melanoma PDX tissue slices. The experiment in a line: Ex vivo organotypic culture of PDX tumor slices with or without IFNγ. It counts as cell-based, human. As to conditions: PT1 and PT2 PDX tissue slices, 24-48 h. From the text:
FIGS. 6A-D show Ex vivo culture of tumors derived from anti-PD-1-responding and non-responding patients identifies heterogeneity in interferon response. (A) Patient tumor blocks stained for HLA-DR (brown) and SOX10 (pink) at low (scale bar, 500 um) and high magnification (scale bar, […]); PT1: anti-PD-1 non-responder and PT2: anti-PD-1 responder. (B) Experimental schema. (C) Schema and images of PDX tissue sections (ex vivo organotypic culture). (D) Western blot analysis of tissue sections cultured in the presence or absence of IFNy for 24-48 h.
To test this hypothesis, patient-derived xenograft (PDX) models were utilized from the tumor resections of two melanoma patients who subsequently received anti-PD1 therapy; patient 1 (PT1; non-responder, 0% HLA-DR-positive, class II/III) and patient 2 (PT2; partial responder, heterogeneous 15% HLA-DR-positive, class Ib) (FIG. 6A). […] The resected tumors from PT1 and PT2 were serially transplanted to athymic nu/nu mice, which are highly deficient in functional T cells, ruling out a possible source of IFNγ (FIG. 6B). […] Thus, HLA-DR may be a marker of IFNγ activity in the microenvironment of some (but not all) tumors.
Cell and tumor culture. SKMEL-28 and WM115 cell lines were obtained from Dr. Kimberly Dahlman (Vanderbilt University), CHL-1 and HMCB melanoma cell lines were obtained from the laboratory of William Pao (Vanderbilt University). […]

Entries after “also recorded” stand apart in the source; their conditions may differ.

Turning to `COc1cccc2c1C(=O)c1c(O)c3c(c(O)c1C2=O)C[C@@](O)(C(=O)CO)C[C@@H]3O[C@H]1C[C@H](N)[C@H](O)[C@H](C)O1` [Doxorubicin], the cytokine expression result in assay [1] is “induce cytokine expression”. The “T cell recruiting chemokines” value in assay [2] is listed as “induces”.

For the molecule “IFNγ: recombinant human IFNγ (R&D Systems), stimulation at 100 ng/mL”, the HLA-DR expression entry is “No significant increase” in assay [3] (CHL-1 or HMCB, 72 hrs of IFNγ treatment) and “potently induced” in assay [3] (SKMEL28 (intermediate/Ib)). In assay [3] (all cell lines tested), the PD-L1 expression entry is “potently induced; also recorded: significantly upregulated”. Further, the CIITA expression result in assay [4] (24 or 48 h IFNγ) is recorded as “only induced in HLA-DR+ Ia/Ib cells”. Besides, in assay [4] (all cell lines), the STAT1 activation entry is given as “robustly activated”. Moreover, the STATS activation entry in assay [5] was “preferentially activated”. In addition, the HLA-DR upregulation result in assay [6] is given as “only the PT2 PDX model (anti-PD-1 responder) upregulated HLA-DR”.
